For 24 molecules, AC50 results are on record in ChEMBL document CHEMBL5291721, “A preclinical secondary pharmacology resource illuminates target-adverse drug reaction associations of marketed drugs” (Nat Commun, 2023).

Molecules are shown by their SMILES. Where only a bound is given, the exact number is not on record here.

For one test, the target named is Histamine H3 receptor (Homo sapiens, UniProt Q9Y5N1).
Test [1] has as its target Vascular endothelial growth factor receptor 2 (Homo sapiens, UniProt P35968). The test is classed as functional.
The target of test [2] is T1, Amine oxidase [flavin-containing] A (Homo sapiens, UniProt P21397).
T1 sequence (P21397 whole entry): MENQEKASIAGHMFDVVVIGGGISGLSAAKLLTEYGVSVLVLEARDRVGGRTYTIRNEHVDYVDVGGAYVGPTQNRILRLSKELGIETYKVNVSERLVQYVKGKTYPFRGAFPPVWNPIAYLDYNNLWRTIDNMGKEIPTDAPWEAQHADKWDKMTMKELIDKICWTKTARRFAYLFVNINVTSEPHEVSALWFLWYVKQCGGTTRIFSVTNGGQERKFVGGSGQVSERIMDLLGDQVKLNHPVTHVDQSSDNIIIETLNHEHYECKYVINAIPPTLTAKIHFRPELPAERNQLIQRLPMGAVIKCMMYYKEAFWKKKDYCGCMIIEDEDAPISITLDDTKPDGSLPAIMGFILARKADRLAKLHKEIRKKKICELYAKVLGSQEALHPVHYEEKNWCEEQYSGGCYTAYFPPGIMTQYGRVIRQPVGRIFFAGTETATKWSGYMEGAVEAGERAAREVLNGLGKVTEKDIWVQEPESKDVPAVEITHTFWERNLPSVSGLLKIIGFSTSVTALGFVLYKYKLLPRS
The class given is functional.

The target of test [3] is T2, Progesterone receptor (Homo sapiens, UniProt P06401).
T2 sequence (P06401 whole entry): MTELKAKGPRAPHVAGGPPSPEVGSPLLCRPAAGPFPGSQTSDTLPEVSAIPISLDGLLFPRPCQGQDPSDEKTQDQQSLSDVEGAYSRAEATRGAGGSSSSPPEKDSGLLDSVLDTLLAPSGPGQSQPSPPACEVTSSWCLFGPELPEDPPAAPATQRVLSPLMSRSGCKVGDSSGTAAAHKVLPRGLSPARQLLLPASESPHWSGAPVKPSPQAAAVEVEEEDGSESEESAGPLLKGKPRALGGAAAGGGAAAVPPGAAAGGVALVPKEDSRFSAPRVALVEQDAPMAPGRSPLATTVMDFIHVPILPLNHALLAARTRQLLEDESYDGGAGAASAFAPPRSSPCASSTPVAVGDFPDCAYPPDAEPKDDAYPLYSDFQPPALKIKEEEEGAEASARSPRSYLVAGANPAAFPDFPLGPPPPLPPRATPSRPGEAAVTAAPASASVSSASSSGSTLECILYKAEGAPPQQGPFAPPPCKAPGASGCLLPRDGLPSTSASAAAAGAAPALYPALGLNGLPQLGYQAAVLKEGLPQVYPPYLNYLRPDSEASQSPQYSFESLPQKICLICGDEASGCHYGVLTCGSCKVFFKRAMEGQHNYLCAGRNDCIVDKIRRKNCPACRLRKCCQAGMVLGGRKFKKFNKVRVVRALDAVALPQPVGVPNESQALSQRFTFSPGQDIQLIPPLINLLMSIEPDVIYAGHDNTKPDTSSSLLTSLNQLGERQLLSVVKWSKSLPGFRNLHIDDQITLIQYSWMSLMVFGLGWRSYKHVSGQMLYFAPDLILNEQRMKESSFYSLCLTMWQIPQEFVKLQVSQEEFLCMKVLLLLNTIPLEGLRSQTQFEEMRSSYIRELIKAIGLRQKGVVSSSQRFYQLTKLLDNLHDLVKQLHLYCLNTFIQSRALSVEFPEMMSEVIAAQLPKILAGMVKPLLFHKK

The next test addresses T3, Endothelin-1 receptor (Homo sapiens, UniProt P25101).
T3 sequence (P25101 whole entry): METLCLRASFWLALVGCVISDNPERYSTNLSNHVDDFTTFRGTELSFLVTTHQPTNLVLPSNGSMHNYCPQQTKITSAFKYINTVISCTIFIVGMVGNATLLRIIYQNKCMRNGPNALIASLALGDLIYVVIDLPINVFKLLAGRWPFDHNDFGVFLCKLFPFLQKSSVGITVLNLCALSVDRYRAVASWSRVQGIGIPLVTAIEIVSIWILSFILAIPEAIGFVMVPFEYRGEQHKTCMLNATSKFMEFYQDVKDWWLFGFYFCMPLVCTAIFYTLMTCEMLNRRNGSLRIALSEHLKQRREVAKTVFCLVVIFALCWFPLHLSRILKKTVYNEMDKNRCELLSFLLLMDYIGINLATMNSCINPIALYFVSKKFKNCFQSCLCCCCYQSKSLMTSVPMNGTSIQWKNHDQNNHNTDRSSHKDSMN

The target in test [4] is Glutamate receptor ionotropic, NMDA 1 (Rattus norvegicus, UniProt P35439).
For test [5], the target named is T2, Progesterone receptor. The test is classed as functional.
Test [6] deals with T2, Progesterone receptor. The test is classed as functional. The source holds these as a separate data set.
Test [7] concerns the target T4, Alpha-1A adrenergic receptor (Homo sapiens, UniProt P35348).
T4 sequence (P35348 whole entry): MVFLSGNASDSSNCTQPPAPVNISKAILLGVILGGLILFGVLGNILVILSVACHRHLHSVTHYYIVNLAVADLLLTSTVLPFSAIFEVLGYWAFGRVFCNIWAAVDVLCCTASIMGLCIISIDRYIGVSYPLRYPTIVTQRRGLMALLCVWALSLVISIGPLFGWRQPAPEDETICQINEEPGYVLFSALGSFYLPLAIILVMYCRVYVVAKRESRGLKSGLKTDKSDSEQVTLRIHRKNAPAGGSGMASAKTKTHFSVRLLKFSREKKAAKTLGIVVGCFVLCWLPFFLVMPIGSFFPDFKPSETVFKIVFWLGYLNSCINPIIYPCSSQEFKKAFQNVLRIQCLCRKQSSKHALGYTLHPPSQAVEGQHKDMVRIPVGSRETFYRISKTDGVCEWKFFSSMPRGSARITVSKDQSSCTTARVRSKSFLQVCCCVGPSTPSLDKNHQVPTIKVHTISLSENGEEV
The test is classed as functional, cell-based.
Further: assay procedure not described here.

Sequence of Vascular endothelial growth factor receptor 2 (P35968 whole entry): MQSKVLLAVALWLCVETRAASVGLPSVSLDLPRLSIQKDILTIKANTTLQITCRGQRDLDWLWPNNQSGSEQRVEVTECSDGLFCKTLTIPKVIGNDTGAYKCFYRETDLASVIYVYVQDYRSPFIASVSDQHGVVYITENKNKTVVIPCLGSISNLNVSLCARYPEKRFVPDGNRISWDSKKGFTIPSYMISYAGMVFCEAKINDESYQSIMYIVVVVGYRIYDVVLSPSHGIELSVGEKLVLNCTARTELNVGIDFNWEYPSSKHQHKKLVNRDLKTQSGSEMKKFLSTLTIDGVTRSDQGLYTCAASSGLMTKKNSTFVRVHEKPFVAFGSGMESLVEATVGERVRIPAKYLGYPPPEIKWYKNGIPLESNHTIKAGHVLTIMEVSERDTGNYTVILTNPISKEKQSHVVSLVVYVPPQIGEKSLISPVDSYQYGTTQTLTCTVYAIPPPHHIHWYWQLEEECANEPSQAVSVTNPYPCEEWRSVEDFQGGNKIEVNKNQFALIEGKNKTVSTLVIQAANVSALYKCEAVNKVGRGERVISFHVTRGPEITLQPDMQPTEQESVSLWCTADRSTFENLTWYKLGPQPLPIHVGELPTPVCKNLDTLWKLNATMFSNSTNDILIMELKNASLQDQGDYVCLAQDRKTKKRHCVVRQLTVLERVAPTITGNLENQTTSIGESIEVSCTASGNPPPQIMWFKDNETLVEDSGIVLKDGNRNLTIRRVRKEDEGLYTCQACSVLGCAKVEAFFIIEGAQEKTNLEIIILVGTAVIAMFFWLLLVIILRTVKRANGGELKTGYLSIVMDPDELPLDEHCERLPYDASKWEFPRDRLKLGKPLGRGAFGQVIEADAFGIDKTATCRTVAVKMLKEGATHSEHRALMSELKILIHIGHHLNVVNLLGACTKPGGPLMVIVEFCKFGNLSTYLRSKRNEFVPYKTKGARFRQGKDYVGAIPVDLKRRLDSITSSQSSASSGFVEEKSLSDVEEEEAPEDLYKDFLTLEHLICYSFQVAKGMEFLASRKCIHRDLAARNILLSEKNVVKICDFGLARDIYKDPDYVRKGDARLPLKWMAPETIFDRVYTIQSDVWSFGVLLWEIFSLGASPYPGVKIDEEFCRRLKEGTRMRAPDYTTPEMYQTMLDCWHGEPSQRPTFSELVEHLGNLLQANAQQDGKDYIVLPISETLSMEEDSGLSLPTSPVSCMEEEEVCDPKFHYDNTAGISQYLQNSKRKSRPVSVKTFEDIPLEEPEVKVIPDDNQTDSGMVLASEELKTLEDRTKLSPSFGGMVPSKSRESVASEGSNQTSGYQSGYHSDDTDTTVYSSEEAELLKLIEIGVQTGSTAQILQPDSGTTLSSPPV
Sequence of Histamine H3 receptor (Q9Y5N1 whole entry): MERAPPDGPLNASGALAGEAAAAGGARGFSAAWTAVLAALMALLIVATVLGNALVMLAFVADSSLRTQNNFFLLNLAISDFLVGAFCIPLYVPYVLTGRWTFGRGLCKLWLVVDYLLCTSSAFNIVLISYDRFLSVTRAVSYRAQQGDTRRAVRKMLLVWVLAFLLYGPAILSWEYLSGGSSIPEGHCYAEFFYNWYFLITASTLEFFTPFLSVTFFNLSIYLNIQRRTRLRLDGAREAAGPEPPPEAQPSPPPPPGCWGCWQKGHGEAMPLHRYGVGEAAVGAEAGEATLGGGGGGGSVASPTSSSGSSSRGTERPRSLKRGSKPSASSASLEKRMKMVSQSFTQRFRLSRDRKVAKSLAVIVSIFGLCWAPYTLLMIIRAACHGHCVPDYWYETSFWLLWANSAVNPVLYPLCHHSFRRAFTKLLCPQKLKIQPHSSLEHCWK

As a reminder, the AC50 is the midpoint of the concentration-response curve, whichever way the signal moves. High values mean activity only at high concentration, low ones activity at low concentration. For the molecule `O=C1c2ccccc2C(=O)C1C(=O)C(c1ccccc1)c1ccccc1` [DIPHENADIONE], the AC50 (on Histamine H3 receptor; in [1]; in test [2]; at Progesterone receptor [3]) was greater than 30 µM each time.

As for `O=C1c2c(O)c(=O)ccn2N([C@@H]2c3ccccc3SCc3c2ccc(F)c3F)[C@@H]2COCCN12` [BALOXAVIR], the AC50 (at Histamine H3 receptor; in test [1]; in test [2]; at Progesterone receptor [3]) was greater than 30 µM in each case.

As to `CS(=O)(=O)c1ccc([C@@H](O)[C@@H](CO)NC(=O)C(Cl)Cl)cc1` [THIAMPHENICOL], the AC50 (at Endothelin-1 receptor; in test [4]; on Histamine H3 receptor; in [2]; at Progesterone receptor [5]; at Progesterone receptor [6]) was greater than 30 µM in each case. Also, the AC50 (at Progesterone receptor [3]; in test [7]) was greater than 30 µM throughout.

For `CCC(=O)c1c(O)cc(O)cc1O` [FLOPROPIONE], the AC50 (at Histamine H3 receptor; in [1]; in test [2]; at Progesterone receptor [3]) was greater than 30 µM in each case.

With `O=C1CC[C@@]2(O)[C@H]3Cc4ccc(O)c5c4[C@@]2(CCN3CC2CC2)[C@H]1O5` [NALTREXONE], the AC50 (on Histamine H3 receptor; in [1]; in test [2]; at Progesterone receptor [3]) was greater than 30 µM in each case.

For `CN(C)C(=O)Oc1ccc[n+](C)c1` [PYRIDOSTIGMINE], the AC50 (at Histamine H3 receptor; in test [1]; in test [2]; on Progesterone receptor [3]) was greater than 30 µM in each case.

With `CC(C)OC(=O)[C@H](C)N[P@](=O)(OC[C@H]1O[C@@H](n2ccc(=O)[nH]c2=O)[C@](C)(F)[C@@H]1O)Oc1ccccc1` [SOFOSBUVIR], the AC50 (at Histamine H3 receptor; in test [1]; in test [2]; at Progesterone receptor [3]) was greater than 30 µM throughout.

For the molecule `CC(N/C(=N\C#N)Nc1ccncc1)C(C)(C)C` (stereo not drawn) [PINACIDIL ANHYDROUS], the AC50 at Histamine H3 receptor was greater than 10 µM; in test [1], greater than 30 µM; in [2], greater than 30 µM; at Progesterone receptor [3], greater than 30 µM.

`CCOC(=O)c1ccc(O)cc1` [ETHYLPARABEN]: the AC50 (on Histamine H3 receptor; in test [1]; in test [2]; on Progesterone receptor [3]) was greater than 30 µM each time.

With `CCO/N=C(\C(=O)N[C@@H]1C(=O)N2C(C(=O)[O-])=C(Sc3nc(-c4cc[n+](C)cc4)cs3)CS[C@H]12)c1nsc(N)n1` [CEFTAROLINE], the AC50 (on Histamine H3 receptor; in [1]; in test [2]; at Progesterone receptor [3]) was greater than 30 µM each time.

`Cc1ccc(O)c2ncccc12` [TILIQUINOL]: the AC50 (at Histamine H3 receptor; in test [1]; in [2]; at Progesterone receptor [3]) was greater than 30 µM in each case.

For `C#C[C@]1(O)CC[C@H]2[C@@H]3CCC4=CC(=O)CC[C@@H]4[C@H]3CC[C@@]21CC` [LEVONORGESTREL], the AC50 (at Histamine H3 receptor; in [1]; in test [2]) was greater than 30 µM throughout.

Turning to `CC(=O)Oc1c(C)cc(OCC(O)CNC(C)C)c(C)c1C` (stereo not drawn) [METIPRANOLOL], the AC50 (on Histamine H3 receptor; in [1]; in [2]; on Progesterone receptor [3]) was greater than 30 µM throughout.

Consider `Sc1ncnc2nc[nH]c12` [MERCAPTOPURINE ANHYDROUS], for which the AC50 (at Histamine H3 receptor; in test [1]; in [2]; at Progesterone receptor [3]) was greater than 30 µM each time.

On to `CC(O)CO` (stereo not drawn) [PROPYLENE GLYCOL], for which the AC50 (on Histamine H3 receptor; in [1]; in [2]; at Progesterone receptor [3]) was greater than 30 µM each time.

In the case of `Cc1cc(O)cc(C)c1Cl` [CHLOROXYLENOL], the AC50 (on Histamine H3 receptor; in [1]; in [2]; at Progesterone receptor [3]) was greater than 30 µM throughout.

For the molecule `Cc1c(-c2ccccc2)oc2c(C(=O)OCCN3CCCCC3)cccc2c1=O` [FLAVOXATE], the AC50 at Histamine H3 receptor was 24.6 µM; in [1], greater than 30 µM; in test [2], greater than 30 µM; on Progesterone receptor [3] it was greater than 30 µM.

With `C[N+]1(C)[C@@H]2C[C@@H](OC(=O)[C@H](CO)c3ccccc3)C[C@H]1[C@@H]1O[C@@H]12` [METHSCOPOLAMINE], the concentration at half-maximal activity (AC50) (at Histamine H3 receptor; in test [1]; in test [2]; on Progesterone receptor [3]) was greater than 30 µM in each case.

With `CN1CCCC(CN2c3ccccc3Sc3ccccc32)C1` (stereo not drawn) [MEPAZINE], the AC50 on Histamine H3 receptor was 22.3 µM; in [1] it was greater than 30 µM; in [2], greater than 30 µM; at Progesterone receptor [3] it was greater than 30 µM.

Turning to `OC[C@@H](O)[C@@H](O)[C@H](O)[C@H](O)CO` [MANNITOL], the AC50 (at Histamine H3 receptor; in test [1]; in test [2]; on Progesterone receptor [3]) was greater than 30 µM each time.

`CCOC(=O)N[C@@H]1CC[C@@H]2[C@@H](C1)C[C@H]1C(=O)O[C@H](C)[C@H]1[C@H]2/C=C/c1ccc(-c2cccc(F)c2)cn1` [VORAPAXAR]: the concentration at half-maximal activity (AC50) at Histamine H3 receptor was greater than 10 µM; in [1], greater than 30 µM; in [2] it was greater than 30 µM; at Progesterone receptor [3], greater than 30 µM.

Consider `CC1(C)O[C@@H]2C[C@H]3[C@@H]4C[C@H](F)C5=CC(=O)CC[C@]5(C)[C@H]4[C@@H](O)C[C@]3(C)[C@]2(C(=O)CO)O1` [FLURANDRENOLIDE], for which the AC50 is greater than 30 µM on Histamine H3 receptor, greater than 30 µM in test [1], greater than 30 µM in test [2] and 0.0666 µM at Progesterone receptor [3].

With `CC(=O)OC[C@H]1O[C@@H](n2ccc(=O)[nH]c2=O)[C@H](OC(C)=O)[C@@H]1OC(C)=O` [URIDINE TRIACETATE], the AC50 (at Histamine H3 receptor; in test [1]; in [2]; at Progesterone receptor [3]) was greater than 30 µM throughout.

For `C[N+](C)(C)CCCCCCCCCC[N+](C)(C)C` [DECAMETHONIUM], the AC50 (at Histamine H3 receptor; in test [1]; in test [2]) was greater than 30 µM each time.
